Results: ChEMBL document CHEMBL5376003, “Structure-Activity Relationship of FL118 Platform Position 7 Versus Position 9-Derived Compounds and Their Mechanism of Action and Antitumor Activity” (J Med Chem, 2023)
Activity calls are given as the source filed them. The rule behind the calls is not given here.

Columns and labels:
[1] = system: HCT-116; assay: Induction of apoptosis in human HCT-116 cells assessed as upregulation of POLR2A mRNA expression at 10 to 500 nM incubated for 6 to 48 hrs by RNA analysis; format: functional, cell-based; details: dose 10-500 nM, time 6-48 hrs
[2] = system: HCT-116; assay: Inhibition of cell migration in human HCT-116 cells assessed as intercellular distance at 5 nM incubated for 24 hrs by inverted phase-contrast microscopic analysis (reference value: 1 +/- 0.2 millimeter); format: functional
[3] = system: HCT-116; assay: Induction of apoptosis in human HCT-116 cells assessed as downregulation of RANBP2 gene expression at 10 to 500 nM incubated for 6 to 48 hrs by RNA analysis; format: functional, cell-based; details: dose 10-500 nM, time 6-48 hrs
[4] = system: HCT-116; assay: Induction of apoptosis in human HCT-116 cells assessed as downregulation of UMPS gene expression at 10 to 500 nM incubated for 6 to 48 hrs by RNA analysis; format: functional, cell-based; details: dose 10-500 nM, time 6-48 hrs
[5] = system: HCT-116; assay: Induction of apoptosis in human HCT-116 cells assessed as upregulation of ADCY6 mRNA expression at 10 to 500 nM incubated for 6 to 48 hrs by RNA analysis; format: functional, cell-based; details: dose 10-500 nM, time 6-48 hrs
[6] = system: HCT-116; assay: Induction of apoptosis in human HCT-116 cells assessed as modulation of DDX18 mRNA expression at 10 to 500 nM incubated for 6 to 48 hrs by RNA analysis; format: functional, cell-based; details: dose 10-500 nM, time 6-48 hrs
[7] = system: HCT-116; assay: Induction of apoptosis in human HCT-116 cells assessed as downregulation of PUDP gene expression at 10 to 500 nM incubated for 6 to 48 hrs by RNA analysis; format: functional, cell-based; details: dose 10-500 nM, time 6-48 hrs
[8] = system: HCT-116; assay: Induction of apoptosis in human HCT-116 cells assessed as modulation of DDX6 mRNA expression at 10 to 500 nM incubated for 6 to 48 hrs by RNA analysis; format: functional, cell-based; details: dose 10-500 nM, time 6-48 hrs
[9] = system: HCT-116; assay: Induction of apoptosis in human HCT-116 cells assessed as modulation of TOP3B mRNA expression at 10 to 500 nM incubated for 6 to 48 hrs by RNA analysis; format: functional, cell-based; details: dose 10-500 nM, time 6-48 hrs
[10] = system: HCT-116; assay: Induction of apoptosis in human HCT-116 cells assessed as modulation of DDX42 mRNA expression at 10 to 500 nM incubated for 6 to 48 hrs by RNA analysis; format: functional, cell-based; details: dose 10-500 nM, time 6-48 hrs
[11] = system: HCT-116; assay: Induction of apoptosis in human HCT-116 cells assessed as modulation of DDX49 mRNA expression at 10 to 500 nM incubated for 6 to 48 hrs by RNA analysis; format: functional, cell-based; details: dose 10-500 nM, time 6-48 hrs
[12] = system: HCT-116; assay: Induction of apoptosis in human HCT-116 cells assessed as modulation of TOP2B mRNA expression at 10 to 500 nM incubated for 6 to 48 hrs by RNA analysis; format: functional, cell-based; details: dose 10-500 nM, time 6-48 hrs
[13] = system: A549; assay: Growth inhibition of human A549 cells incubated for 48 hrs by MTT reagent based ELISA reader analysis; format: functional, cell-based; details: A549, 48 h
[14] = system: HCT-116; assay: Induction of apoptosis in human HCT-116 cells assessed as downregulation of DCTPP1 gene expression at 10 to 500 nM incubated for 6 to 48 hrs by RNA analysis; format: functional, cell-based; details: dose 10-500 nM, time 6-48 hrs
[15] = system: HCT-116; assay: Induction of apoptosis in human HCT-116 cells assessed as downregulation of DTYMK gene expression at 10 to 500 nM incubated for 6 to 48 hrs by RNA analysis; format: functional, cell-based; details: dose 10-500 nM, time 6-48 hrs
[16] = system: HCT-116; assay: Induction of apoptosis in human HCT-116 cells assessed as upregulation of USP11 mRNA expression at 10 to 500 nM incubated for 6 to 48 hrs by RNA analysis; format: functional, cell-based; details: dose 10-500 nM, time 6-48 hrs
[17] = system: HCT-116; assay: Induction of apoptosis in human HCT-116 cells assessed as upregulation of GADD45A mRNA expression at 10 to 500 nM incubated for 6 to 48 hrs by RNA analysis; format: functional, cell-based; details: dose 10-500 nM, time 6-48 hrs
[18] = system: HCT-116; assay: Induction of apoptosis in human HCT-116 cells assessed as downregulation of PCK2 gene expression at 10 to 500 nM incubated for 6 to 48 hrs by RNA analysis; format: functional, cell-based; details: dose 10-500 nM, time 6-48 hrs
[19] = system: HCT-116; assay: Induction of apoptosis in human HCT-116 cells assessed as downregulation of NUP155 gene expression at 10 to 500 nM incubated for 6 to 48 hrs by RNA analysis; format: functional, cell-based; details: dose 10-500 nM, time 6-48 hrs
[20] = system: HCT-116; assay: Induction of apoptosis in human HCT-116 cells assessed as downregulation of NUP160 gene expression at 10 to 500 nM incubated for 6 to 48 hrs by RNA analysis; format: functional, cell-based; details: dose 10-500 nM, time 6-48 hrs
[21] = system: HCT-116; assay: Induction of apoptosis in human HCT-116 cells assessed as downregulation of ACACA gene expression at 10 to 500 nM incubated for 6 to 48 hrs by RNA analysis; format: functional, cell-based; details: dose 10-500 nM, time 6-48 hrs
[22] = system: HCT-116; assay: Induction of apoptosis in human HCT-116 cells assessed as downregulation of NUDT15 gene expression at 10 to 500 nM incubated for 6 to 48 hrs by RNA analysis; format: functional, cell-based; details: dose 10-500 nM, time 6-48 hrs
[23] = system: HCT-116; assay: Induction of apoptosis in human HCT-116 cells assessed as downregulation of NT5C2 gene expression at 10 to 500 nM incubated for 6 to 48 hrs by RNA analysis; format: functional, cell-based; details: dose 10-500 nM, time 6-48 hrs
[24] = system: HCT-116; assay: Induction of apoptosis in human HCT-116 cells assessed as downregulation of ADSL gene expression at 10 to 500 nM incubated for 6 to 48 hrs by RNA analysis; format: functional, cell-based; details: dose 10-500 nM, time 6-48 hrs
[25] = system: HCT-116; assay: Induction of apoptosis in human HCT-116 cells assessed as upregulation of BIK mRNA expression at 10 to 500 nM incubated for 6 to 48 hrs by RNA analysis; format: functional, cell-based; details: dose 10-500 nM, time 6-48 hrs
[26] = system: HCT-116; assay: Induction of apoptosis in human HCT-116 cells assessed as downregulation of SLC25A13 gene expression at 10 to 500 nM incubated for 6 to 48 hrs by RNA analysis; format: functional, cell-based; details: dose 10-500 nM, time 6-48 hrs
[27] = system: HCT-116; assay: Induction of apoptosis in human HCT-116 cells assessed as downregulation of END1 gene expression at 10 to 500 nM incubated for 6 to 48 hrs by RNA analysis; format: functional, cell-based; details: dose 10-500 nM, time 6-48 hrs
[28] = system: HCT-116; assay: Activation of innate immune response in human HCT-116 cells assessed as upregulation of IRF7 gene expression at 10 to 500 nM incubated for 6 to 48 hrs by RNA analysis; format: functional, cell-based; details: dose 10-500 nM, time 6-48 hrs
[29] = system: HCT-116; assay: Induction of apoptosis in human HCT-116 cells assessed as upregulation of DDX5 mRNA expression at 50 nM incubated for 24 hrs by RNA analysis; format: functional, cell-based
[30] = system: HCT-116; assay: Induction of apoptosis in human HCT-116 cells assessed as downregulation of TPR gene expression at 10 to 500 nM incubated for 6 to 48 hrs by RNA analysis; format: functional, cell-based; details: dose 10-500 nM, time 6-48 hrs
[31] = system: HCT-116; assay: Induction of apoptosis in human HCT-116 cells assessed as downregulation of MCL-1 protein expression incubated for 48 hrs by Western blotting analysis; format: functional, cell-based

Compound	Activity [1]	Activity [2] [mm]	Activity [3]	Activity [4]	Activity [5]	Activity [6]	Activity [7]	Activity [8]	Activity [9]	Activity [10]	Activity [11]	Activity [12]	IC50 [13] [nM]	Activity [14]	Activity [15]	Activity [16]	Activity [17]	Activity [18]	Activity [19]	Activity [20]	further results
CC[C@@]1(O)C(=O)OCc2c1cc1n(c2=O)Cc2cc3cc4c(cc3nc2-1)OCO4	Active	1.3	Active	Active	Active	Active	Active	Active	Active	Active	Active	Active	50.7	Active	Active	Active	Active	Active	Active	Active	Activity [21]: Active; Activity [22]: Active; Activity [23]: Active; Activity [24]: Active; Activity [25]: Active; Activity [26]: Active; Activity [27]: Active; Activity [28]: Active; Activity [29]: inactive; Activity [30]: Active
CCc1ccc(-c2c3c(nc4cc5c(cc24)OCO5)-c2cc4c(c(=O)n2C3)COC(=O)[C@]4(O)CC)cc1	Active	1.3	Active	Active	Active	Active	Active	Active	Active	Active	Active	Active	57.2	Active	Active	Active	Active	Active	Active	Active	Activity [31]: Active; Activity [21]: Active; Activity [22]: Active; Activity [23]: Active; Activity [24]: Active; Activity [25]: Active; Activity [26]: Active; Activity [27]: Active; Activity [28]: Active; Activity [29]: inactive; Activity [30]: Active
